The record followed here is patent US12252481B2, “Anti-viral compounds” (Aligos Therapeutics, Inc., priority 2021, dated 2025).

In one experiment the target is T1, SARS-Cov-2 3CLpro (Severe acute respiratory syndrome coronavirus 2, UniProt P0DTD1).
T1 construct: 3CLpro and HRV3C was added using a Multidrop Combi
The experiment is described as follows: biochemical. The settings on record: 3CLpro, 30 mins preincubation, SAMDI-MS; read-out: SARS-Cov-2 IC50 (class).

In another experiment the target is T2, HRV3C (Human rhinovirus 14, UniProt P03303).
T2 construct: 3CLpro and HRV3C was added using a Multidrop Combi
T2 sequence (P03303 1538-1719): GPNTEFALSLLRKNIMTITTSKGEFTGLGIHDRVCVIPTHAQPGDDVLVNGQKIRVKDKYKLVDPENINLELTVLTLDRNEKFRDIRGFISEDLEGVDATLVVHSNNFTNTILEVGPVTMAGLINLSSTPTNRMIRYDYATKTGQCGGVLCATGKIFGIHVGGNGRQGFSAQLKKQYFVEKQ
Nature of the experiment: biochemical. Set-up: species or system HRV. Conditions: HRV3C, 30 mins preincubation, SAMDI-MS.

The test system of experiment [1] is human beta-coronavirus OC43. Nature of the experiment: OC43 coronavirus antiviral assay in HeLa cells (cytopathic effect, cell-titer-glo). It counts as cell-based. The settings on record: Betacoronavirus 1, OC43, HeLa, 144 h, 6 days at 33° C. (Damage to the host cells serves as the signal in cytopathic effect assays.)
For experiment [2], the system named is SARS-CoV-2-GHB-03021/2020. It counts as cell-based. The settings on record: read-out: VeroE6 + CP (EC50).
The test system of experiment [3] is B.1.1.7 lineage SARS-CoV-2. The experiment is described as follows: microbe, parasite or virus in culture. It counts as cell-based. Conditions: Severe acute respiratory syndrome coronavirus 2, 96 h, read-out: A549-dual_ACE2_TMPRSS2 (EC50).
For another experiment, the target named is T3, human cathepsin L (Homo sapiens, UniProt P07711).
T3 construct: purchased R&D Systems
T3 sequence (P07711 114-333): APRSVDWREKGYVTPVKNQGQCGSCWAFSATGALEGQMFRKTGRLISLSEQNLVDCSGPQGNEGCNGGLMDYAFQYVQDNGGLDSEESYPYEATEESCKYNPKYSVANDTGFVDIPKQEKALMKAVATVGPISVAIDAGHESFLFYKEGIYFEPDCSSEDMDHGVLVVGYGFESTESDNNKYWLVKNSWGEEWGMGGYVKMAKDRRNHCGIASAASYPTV
The experiment is described as follows: Cathepsin L assay (Z-FR-AMC fluorescence). It counts as biochemical. Conditions: 10 pM human cathepsin L, 30 mins preincubation, Z-FR-AMC 2 μM. In outline:
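IC50 values were taken from four-parameter fits of fluorescence read at 355/460 nm every 2 minutes for 30 minutes. The reaction started when 2 μM Z-FR-AMC was added. Before that, 10 pM human cathepsin L had been preincubated with inhibitor for 30 minutes.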

Molecules are shown by their SMILES. Read-outs that look alike come from different tables or passages of the source.

Consider `CC(C)(C)[C@H](NC(=O)C(F)(F)F)C(=O)N1C[C@H]2[C@@H]([C@H]1C(=O)N[C@H](C#N)C[C@@H]1CCNC1=O)[C@H]1C=C[C@@H]2CC1` (mixture of isomers) [Compound 59], for which the half-inhibitory concentration (IC50) (as a rule, the concentration at which inhibition is half-maximal) on SARS-Cov-2 3CLpro is less than 20 nM; at HRV3C (read-out: HRV IC50 (bound)) it was greater than 10 µM; at human cathepsin L it was no less than 10 µM. Also, the 50% effective concentration (EC50) in experiment [1] (read-out: EC50 (class)), in experiment [2] and in experiment [3] was less than 100 nM in each case.

For the compound `CC(C)(C)[C@H](NC(=O)C(F)(F)Cl)C(=O)N1C[C@H]2[C@@H]([C@H]1C(=O)N[C@H](C#N)C[C@@H]1CCNC1=O)[C@H]1C=C[C@@H]2C1` [Example 39, (1R,2S,3S,6R,7S)-4-[(2S)-2-(2-chloro-2,2-difluoroacetamido)-3,3-dimethylbutanoyl]-N-[(1S)-1-cyano-2-[(3S)-2-oxopyrrolidin-3-yl]ethyl]-4-azatricyclo[5.2.1.0^{2,6}]dec-8-ene-3-carboxamide], the half-maximal inhibitory concentration (IC50) was less than 20 nM at SARS-Cov-2 3CLpro, greater than 10 µM on HRV3C (read-out: HRV IC50 (bound)) and no less than 10 µM at human cathepsin L. The EC50 in experiment [1] (read-out: EC50 (class)), in experiment [2] and in experiment [3] was less than 100 nM each time.

For the compound `CC(C)(C)[C@H](NC(=O)C(F)(F)F)C(=O)N1C[C@H]2[C@@H]([C@H]1C(=O)N[C@H](C#N)C[C@@H]1CC3(CC3)NC1=O)[C@H]1C=C[C@@H]2C1` [Example 14, (1S,3aR,4S,7R,7aS)-N-((S)-1-cyano-2-((R)-5-oxo-4-azaspiro[2.4]heptan-6-yl)ethyl)-2-((S)-3,3-dimethyl-2-(2,2,2-trifluoroacetamido)butanoyl)-2,3,3a,4,7,7a-hexahydro-1H-4,7-methanoisoindole-1-carboxamide], the results for the concentration for half-maximal inhibition (IC50) on SARS-Cov-2 3CLpro, at HRV3C (read-out: HRV IC50 (bound)) and against human cathepsin L were less than 20 nM, greater than 10 µM and no less than 10 µM, respectively. Besides, the EC50 in experiment [1] (read-out: EC50 (class)), in experiment [2] and in experiment [3] was less than 100 nM in each case.

For `CC(C)(C)[C@H](NC(=O)C(F)(F)F)C(=O)N1C[C@@H]2[C@@H]3CC[C@@H](C3)[C@@H]2[C@H]1C(=O)N[C@H](C#N)C[C@@H]1CCNC1=O` [Example 12, (1S,3aR,4R,7S,7aS)-N-((S)-1-cyano-2-((S)-2-oxopyrrolidin-3-yl)ethyl)-2-((S)-3,3-dimethyl-2-(2,2,2-trifluoroacetamido)butanoyl)octahydro-1H-4,7-methanoisoindole-1-carboxamide], the figures for the IC50 at SARS-Cov-2 3CLpro, on HRV3C (read-out: HRV IC50 (bound)) and on human cathepsin L were less than 20 nM, greater than 10 µM and no less than 10 µM, respectively. Moreover, the 50% effective concentration (EC50) in experiment [1] (read-out: EC50 (class)), in experiment [2] and in experiment [3] was less than 100 nM in each case.

Consider `CC(C)(C)[C@H](NC(=O)C(F)(F)Cl)C(=O)N1C[C@@H]2[C@@H]3CC[C@@H](C3)[C@@H]2[C@H]1C(=O)N[C@H](C#N)C[C@@H]1CCNC1=O` [Example 40, (1S,2S,3S,6R,7R)-4-[(2S)-2-(2-chloro-2,2-difluoroacetamido)-3,3-dimethylbutanoyl]-N-[(1S)-1-cyano-2-[(3S)-2-oxopyrrolidin-3-yl]ethyl]-4-azatricyclo[5.2.1.0^{2,6}]decane-3-carboxamide], for which the concentration for half-maximal inhibition (IC50) was less than 20 nM at SARS-Cov-2 3CLpro, greater than 10 µM at HRV3C (read-out: HRV IC50 (bound)) and no less than 10 µM on human cathepsin L. In addition, the concentration for a half-maximal effect (EC50) in experiment [1] (read-out: EC50 (class)), in experiment [2] and in experiment [3] was less than 100 nM in each case.

Take `O=C(NC1CC1)C(=O)C(C[C@@H]1CCNC1=O)NC(=O)[C@@H]1[C@@H]2[C@H](CN1C(=O)c1cc3c(Cl)cc(Cl)cc3[nH]1)[C@@H]1C=C[C@H]2C1` (stereo partly drawn) [Compound 46, (1S,3aR,4S,7R,7aS)—N-(4-(cyclopropylamino)-3,4-dioxo-1-((S)-2-oxopyrrolidin-3-yl)butan-2-yl)-2-(4,6-dichloro-1H-indole-2-carbonyl)-2,3,3a,4,7,7a-hexahydro-1H-4,7-methanoisoindole-1-carboxamide]: the results for the IC50 on SARS-Cov-2 3CLpro, on HRV3C (read-out: HRV IC50 (class)) and at human cathepsin L were less than 20 nM, 0.2 to 2 µM and no less than 10 µM, respectively. In addition, the EC50 in experiment [1] (read-out: EC50 (class)), in experiment [2] and in experiment [3] was 100 to 1000 nM each time.

For `CC(C)(C)[C@H](NC(=O)C1(C2CC2)CC1)C(=O)N1C[C@H]2[C@@H]([C@H]1C(=O)N[C@H](C#N)C[C@@H]1CCNC1=O)[C@H]1C=C[C@@H]2C1` [Example 35, (1R,2S,3S,6R,7S)-4-[(2S)-2-{[1,1′-bi(cyclopropane)]-1-ylformamido}-3,3-dimethylbutanoyl]-N-[(1S)-1-cyano-2-[(3S)-2-oxopyrrolidin-3-yl]ethyl]-4-azatricyclo[5.2.1.0^{2,6}]dec-8-ene-3-carboxamide], the 50% inhibitory concentration (IC50) at SARS-Cov-2 3CLpro is 20 to 200 nM; at HRV3C (read-out: HRV IC50 (bound)) it was greater than 10 µM; against human cathepsin L, no less than 10 µM. The figures for the EC50 in experiment [1] (read-out: EC50 (class)), in experiment [2] and in experiment [3] were 100 to 1000 nM, 100 to 1000 nM and 1000 to 10000 nM, respectively.

For the compound `CC(C)(C)[C@H](NC(=O)[C@@H]1CC1(F)F)C(=O)N1C[C@H]2[C@@H]([C@H]1C(=O)N[C@H](C#N)C[C@@H]1CCNC1=O)[C@H]1C=C[C@@H]2C1` [Compound 41], the IC50 is less than 20 nM on SARS-Cov-2 3CLpro, greater than 10 µM at HRV3C (read-out: HRV IC50 (bound)) and no less than 10 µM at human cathepsin L. For the same compound, the half-maximal effective concentration (EC50) in experiment [1] (read-out: EC50 (class)), in experiment [2] and in experiment [3] was less than 100 nM in each case.

With `CC(C)(C)[C@H](NC(=O)[C@H]1CCCO1)C(=O)N1C[C@H]2[C@@H]([C@H]1C(=O)N[C@H](C#N)C[C@@H]1CCNC1=O)[C@H]1C=C[C@@H]2C1` [Example 22, (1S,3aR,4S,7R,7aS)-N-((S)-1-cyano-2-((S)-2-oxopyrrolidin-3-yl)ethyl)-2-((S)-3,3-dimethyl-2-((R)-tetrahydrofuran-2-carboxamido)butanoyl)-2,3,3a,4,7,7a-hexahydro-1H-4,7-methanoisoindole-1-carboxamide], the figures for the IC50 at SARS-Cov-2 3CLpro, on HRV3C (read-out: HRV IC50 (bound)) and at human cathepsin L were 200 to 2000 nM, greater than 10 µM and no less than 10 µM, respectively. The EC50 in experiment [1] (read-out: EC50 (class)), in experiment [2] and in experiment [3] was 1000 to 10000 nM throughout.

For `CC(C)(C)[C@H](NC(=O)C(F)(F)F)C(=O)N1C[C@H]2[C@@H]([C@H]1C(=O)NC(C#N)CC1CCc3cnnn31)[C@H]1C=C[C@@H]2C1` (stereo partly drawn) [Example 37, (1R,2S,3S,6R,7S)—N-(1-cyano-2-{4H,5H,6H-pyrrolo[1,2-c][1,2,3]triazol-6-yl}ethyl)-4-[(2S)-3,3-dimethyl-2-(2,2,2-trifluoroacetamido)butanoyl]-4-azatricyclo[5.2.1.0^{2,6}]dec-8-ene-3-carboxamide], the values for the IC50 on SARS-Cov-2 3CLpro, on HRV3C (read-out: HRV IC50 (bound)) and on human cathepsin L were 20 to 200 nM, greater than 10 µM and no less than 10 µM, respectively. Also, the EC50 – broadly, the concentration needed to bring the measured effect to its halfway point – was greater than 10000 nM in experiment [1] (read-out: EC50 (bound)), 1000 to 10000 nM in experiment [2] and 1000 to 10000 nM in experiment [3].

`CC(C)(C)[C@H](NC(=O)C(F)(F)F)C(=O)N1C[C@@H]2[C@H]3C[C@@H]([C@@H]2[C@H]1C(=O)N[C@H](C#N)C[C@@H]1CCNC1=O)[C@H](O)C3` [Example 85, (1S,2R,3S,6R,7S,9R)—N-[(1S)-1-cyano-2-[(3S)-2-oxopyrrolidin-3-yl]ethyl]-4-[(2S)-3,3-dimethyl-2-(2,2,2-trifluoroacetamido)butanoyl]-9-hydroxy-4-azatricyclo[5.2.1.0^{2,6}]decane-3-carboxamide]: the IC50 on SARS-Cov-2 3CLpro is 200 to 2000 nM; at HRV3C (read-out: HRV IC50 (bound)) it was greater than 10 µM; on human cathepsin L, no less than 10 µM. For the same compound, the EC50 in experiment [1] (read-out: EC50 (bound)) is greater than 10000 nM; in experiment [2] it was 10000 to 50000 nM; in experiment [3] ([…], numeric bounds given instead of class symbols), greater than 10000 nM.

In the case of `CC(C)(C)[C@H](NC(=O)C(F)(F)F)C(=O)N1C[C@H]2[C@@H]([C@H]1C(=O)NC(C#N)C[C@]13CC[C@H](C1)NC3=O)[C@H]1C=C[C@@H]2C1` (stereo partly drawn) [Example 26, (1S,3aR,4S,7R,7aS)—N-(1-cyano-2-((1R,4S)-3-oxo-2-azabicyclo[2.2.1]heptan-4-yl)ethyl)-2-((S)-3,3-dimethyl-2-(2,2,2-trifluoroacetamido)butanoyl)-2,3,3a,4,7,7a-hexahydro-1H-4,7-methanoisoindole-1-carboxamide], the results for the concentration for half-maximal inhibition (IC50) on SARS-Cov-2 3CLpro, on HRV3C (read-out: HRV IC50 (bound)) and on human cathepsin L were 20 to 200 nM, greater than 10 µM and no less than 10 µM, respectively. The half-maximal effective concentration (EC50) in experiment [1] (read-out: EC50 (class)), in experiment [2] and in experiment [3] was 100 to 1000 nM in each case.

On to `CC(C)(C)[C@H](NC(=O)C(F)(F)F)C(=O)N1C[C@@H]2[C@@H]3CC[C@@H](C3)[C@@H]2[C@H]1C(=O)N[C@H](C#N)C[C@H]1Cn2nccc2NC1=O` (relative stereo) [Compound 17b], for which the IC50 on SARS-Cov-2 3CLpro is less than 20 nM; on HRV3C (read-out: HRV IC50 (bound)), greater than 10 µM; at human cathepsin L it was no less than 10 µM. Further, the EC50 in experiment [1] (read-out: EC50 (class)), in experiment [2] and in experiment [3] was 100 to 1000 nM each time.
